From article PMC4128255 (European journal of medicinal chemistry, 2014)
Ends that are not written are not given here. fluorescein = fluorescein label on the lysine ε-amino group

How the values were obtained:
eIF4E (GST-eIF4E) = eIF4E (GST-eIF4E) (Homo sapiens, UniProt P06730); test: Fluorescence polarization; assay type: binding; details: for FP ratio: Table 3, IC50 of [Z]-4EGI-1/IC50 of compound in the same plate; for loss in binding affinity: relative to 4EGI-1, FP
[1] = system: cyclin D1, cyclin E, Survivin, β-Actin, α-Tubulin expression in CRL-2813 melanoma cells; test: Western blot of regulatory and housekeeping protein expression in CRL-2813 cells; assay type: cell-based, Human; details: 6 hrs
[2] = biological target: GST-eIF4E fusion protein (recombinant, E. coli-expressed) (not stated (human or mouse cDNA cloned)) (UniProt P06730); test: fluorescence polarisation
Sequence of GST-eIF4E fusion protein (recombinant, E. coli-expressed) (not stated (human or mouse cDNA cloned)) (P06730 27-217 limits assumed): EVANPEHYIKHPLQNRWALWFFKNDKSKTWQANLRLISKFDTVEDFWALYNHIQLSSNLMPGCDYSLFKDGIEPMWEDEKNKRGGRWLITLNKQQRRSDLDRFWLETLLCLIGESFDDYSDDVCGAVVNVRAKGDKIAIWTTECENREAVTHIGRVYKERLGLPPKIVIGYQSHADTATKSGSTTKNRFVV

Sequence of eIF4E (GST-eIF4E) (P06730 27-217 limits assumed): as above

Molecule: 2-(2-(5-(3,4-Dichlorophenyl)thiazol-2-yl)hydrazono)-3-(4-hydroxy-3-nitrophenyl)propanoic acid [[E]-11c]
- FP ratio (eIF4E (GST-eIF4E)): 0.9

Molecule: 2-(2-(5-(3,4-Dichlorophenyl)thiazol-2-yl)hydrazono)-3-(4-hydroxy-3-nitrophenyl)propanoic acid [[Z]-11c]
- FP ratio (eIF4E (GST-eIF4E)): 1.1

Molecule: 3-(4-Amino-3-nitrophenyl)-2-(2-(5-(3,4-dichlorophenyl)thiazol-2-yl)hydrazono)propanoic acid [[E]-11a]
- FP ratio (eIF4E (GST-eIF4E)): 1.0

Molecule: 4-(2-Carboxy-2-(2-(5-(3,4-dichlorophenyl)thiazol-2-yl)hydrazono)ethyl)-3-nitrobenzoic acid [[E]-11b]
- FP ratio (eIF4E (GST-eIF4E)): 0.6

Molecule: 4-(2-Carboxy-2-(2-(5-(3,4-dichlorophenyl)thiazol-2-yl)hydrazono)ethyl)-3-nitrobenzoic acid [[Z]-11b]
- FP ratio (eIF4E (GST-eIF4E)): 0.9

Molecule: O=C(O)C(Cc1ccc(O)cc1)=NNc1nc(-c2ccc(Cl)c(Cl)c2)cs1 [Compound 10d, 2-(2-(4-(3,4-Dichlorophenyl)thiazol-2-yl)hydrazono)-3-(4-hydroxyphenyl)propanoic acid]
- loss in binding affinity (eIF4E (GST-eIF4E)): 30–40%

Molecule: O=C(O)C(Cc1ccc(C(F)(F)F)cc1)=NNc1nc(-c2ccc(Cl)c(Cl)c2)cs1 [Compound 10i, 2-(2-(4-(3,4-Dichlorophenyl)thiazol-2-yl)hydrazono)-3-(4-(trifluoromethyl)phenyl)propanoic acid]
- loss in binding affinity (eIF4E (GST-eIF4E)): 30–40%

Molecule: O=C(O)/C(Cc1ccccc1[N+](=O)[O-])=N\Nc1nc(-c2ccc(Cl)c(Cl)c2)cs1 [[Z]-4EGI-1, 2-(2-(4-(3,4-Dichlorophenyl)thiazol-2-yl)hydrazono)-3-(2-nitrophenyl)propanoic acid, reference compound]
- expression of housekeeping proteins β-Actin and α-Tubulin [1]: not affected
- expression of regulatory proteins cyclin D1, cyclin E, and Survivin [1]: markedly reduced

Molecule: O=C(O)/C(Cc1ccccc1[N+](=O)[O-])=N\Nc1nc(-c2ccc(O)cc2)cs1 [[Z]-12b, 2-(2-(4-(4-Hydroxyphenyl)thiazol-2-yl)hydrazono)-3-(2-nitrophenyl)propanoic acid]
- expression of housekeeping proteins β-Actin and α-Tubulin [1]: no effect
- expression of regulatory proteins cyclin D1, cyclin E, and Survivin [1]: no effect

Molecule: KYTYDELFQLK(fluorescein)-OH [fluorescein labeled eIF4G-derived peptide …(ε-Flu)-OH]
- Kd [2]: 3000 nM
